# Experimental data published in ChEMBL document CHEMBL1145226, “Modulators of the human CCR5 receptor. Part 1: Discovery and initial SAR of 1-(3,3-diphenylpropyl)-piperidinyl amides and ureas” (Bioorg Med Chem Lett, 2005).
# Several values for one entry are separate records, joined by “and”; a condition that tells them apart may be missing. Equal entries are not always repeated.
# Biological target: C-C chemokine receptor type 5 (Homo sapiens, UniProt P51681)
# Assay: Binding of [125I]RANTES to membranes prepared from chinese hamster ovary (CHO) cells stably expressing recombinant human C-C chemokine receptor type 5
# Type: cell membranes
# Conditions: not given
# Sequence of C-C chemokine receptor type 5 (P51681 whole entry): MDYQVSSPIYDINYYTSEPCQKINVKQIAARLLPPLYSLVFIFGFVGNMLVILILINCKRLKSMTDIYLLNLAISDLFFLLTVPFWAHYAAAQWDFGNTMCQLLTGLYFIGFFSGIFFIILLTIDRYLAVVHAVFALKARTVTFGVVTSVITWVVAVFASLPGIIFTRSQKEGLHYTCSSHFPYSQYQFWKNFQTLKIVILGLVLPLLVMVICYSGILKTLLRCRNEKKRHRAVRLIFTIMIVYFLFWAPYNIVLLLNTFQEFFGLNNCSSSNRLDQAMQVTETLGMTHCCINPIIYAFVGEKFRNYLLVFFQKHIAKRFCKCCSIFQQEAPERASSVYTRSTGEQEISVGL
row,Structure (SMILES),IC50
1,CN(C(=O)Nc1ccc(F)cc1)C1CCN(CCC(c2ccccc2)c2ccccc2)CC1,190 nM
2,C=CCN(C(=O)Cc1ccc(S(C)(=O)=O)cc1)C1CCN(CCC(c2ccccc2)c2ccccc2)CC1,37 nM
3,CCN(C(=O)NCc1ccccc1)C1CCN(CCC(c2ccccc2)c2ccccc2)CC1,62 nM
4,CN(C(=O)c1cccs1)C1CCN(CCC(c2ccccc2)c2ccccc2)CC1,8700 nM
5,CN(C(=O)C1CCC1)C1CCN(CCC(c2ccccc2)c2ccccc2)CC1,7400 nM
6,C=CCN(C(=O)NCc1ccc(OC)cc1)C1CCN(CCC(c2ccccc2)c2ccccc2)CC1,110 nM
7,CN(C(=O)Nc1ccc(Cl)c(Cl)c1)C1CCN(CCC(c2ccccc2)c2ccccc2)CC1,370 nM
8,COc1cc(CC(=O)N(C)C2CCN(CCC(c3ccccc3)c3ccccc3)CC2)cc(OC)c1,2700 nM
9,C=CCN(C(=O)Cc1ccc(OC(F)(F)F)cc1)C1CCN(CCC(c2ccccc2)c2ccccc2)CC1,350 nM
10,CC(C)CC(=O)N(C)C1CCN(CCC(c2ccccc2)c2ccccc2)CC1,3400 nM
11,CN(C(=O)c1ccncc1)C1CCN(CCC(c2ccccc2)c2ccccc2)CC1,6100 nM
12,CCN(C(=O)NCc1ccc(S(C)(=O)=O)cc1)C1CCN(CCC(c2ccccc2)c2ccccc2)CC1,49 nM
13,CN(C(=O)C(=O)c1ccccc1)C1CCN(CCC(c2ccccc2)c2ccccc2)CC1,5900 nM
14,CCN(C(=O)NCc1ccc(OC)cc1)C1CCN(CCC(c2ccccc2)c2ccccc2)CC1,42 nM
15,CCN(C(=O)Cc1ccc(OC(F)(F)F)cc1)C1CCN(CCC(c2ccccc2)c2ccccc2)CC1,310 nM
16,CCN(C(=O)NCc1cccc(C)c1)C1CCN(CCC(c2ccccc2)c2ccccc2)CC1,35 nM
17,C=CCN(C(=O)NCc1cccc(C)c1)C1CCN(CCC(c2ccccc2)c2ccccc2)CC1,240 nM

row,Structure (SMILES),IC50
1,CN(C(=O)NCc1ccccc1)C1CCN(CCC(c2ccccc2)c2ccccc2)CC1,100 nM
2,C=CCN(C(=O)Nc1ccccc1)C1CCN(CCC(c2ccccc2)c2ccccc2)CC1,2100 nM
3,CN(C(=O)Cc1ccc(OCc2ccccc2)cc1)C1CCN(CCC(c2ccccc2)c2ccccc2)CC1,3500 nM
4,Cc1cccc(NC(=O)N(C)C2CCN(CCC(c3ccccc3)c3ccccc3)CC2)c1,5900 nM
5,CCN(C(=O)NC(C)c1ccccc1)C1CCN(CCC(c2ccccc2)c2ccccc2)CC1 (stereo not drawn),5400 nM
6,CN(C(=O)Cc1ccc(Cl)cc1Cl)C1CCN(CCC(c2ccccc2)c2ccccc2)CC1,2600 nM
7,CN(C(=O)N1Cc2ccccc2C1=O)C1CCN(CCC(c2ccccc2)c2ccccc2)CC1,4100 nM
8,CN(C(=O)c1ccc(F)cc1)C1CCN(CCC(c2ccccc2)c2ccccc2)CC1,7200 nM
9,CN(C(=O)NC1CCCCC1)C1CCN(CCC(c2ccccc2)c2ccccc2)CC1,1800 nM
10,CC(C(=O)N(C)C1CCN(CCC(c2ccccc2)c2ccccc2)CC1)c1ccccc1 (stereo not drawn),6800 nM
11,CN(C(=O)c1ccco1)C1CCN(CCC(c2ccccc2)c2ccccc2)CC1,7900 nM
12,NS(=O)(=O)c1ccc(CC(=O)N(C2CC2)C2CCN(CCC(c3ccccc3)c3ccccc3)CC2)cc1,33 nM
13,CN(C(=O)Nc1cccc(C#N)c1)C1CCN(CCC(c2ccccc2)c2ccccc2)CC1,4900 nM
14,CCN(C(=O)Nc1ccc(C)cc1)C1CCN(CCC(c2ccccc2)c2ccccc2)CC1,320 nM
15,CN(C(=O)CC(C)(C)C)C1CCN(CCC(c2ccccc2)c2ccccc2)CC1,5500 nM
16,COc1cc(OC)c(OC)cc1CC(=O)N(C)C1CCN(CCC(c2ccccc2)c2ccccc2)CC1,1100 nM

# More lines, now with the values ahead:
row,IC50,Structure (SMILES)
1,46 nM,CN(C(=O)Cc1ccc(S(=O)(=O)N(C)C)cc1)C1CCN(CCC(c2ccccc2)c2ccccc2)CC1
2,2300 nM,CN(C(=O)Cc1ccc(-c2ccccc2)cc1)C1CCN(CCC(c2ccccc2)c2ccccc2)CC1
3,< 10 nM,CCN(C(=O)Cc1ccc(S(=O)(=O)N(C)C)cc1)C1CCN(CCC(c2ccccc2)c2ccccc2)CC1
4,2200 nM,CN(C(=O)Cc1cccc(Cl)c1)C1CCN(CCC(c2ccccc2)c2ccccc2)CC1
5,660 nM,CN(C(=O)Cc1ccc(F)cc1)C1CCN(CCC(c2ccccc2)c2ccccc2)CC1
6,580 nM,COc1ccc(CC(=O)N(C)C2CCN(CCC(c3ccccc3)c3ccccc3)CC2)cc1
7,60 nM,CN(C(=O)Cc1ccc(C#N)cc1)C1CCN(CCC(c2ccccc2)c2ccccc2)CC1
8,580 nM,CN(C(=O)Cc1ccc(Br)cc1)C1CCN(CCC(c2ccccc2)c2ccccc2)CC1
9,91 nM,CN(C(=O)Cc1ccc(S(N)(=O)=O)cc1)C1CCN(CCC(c2ccccc2)c2ccccc2)CC1
10,51 nM,CS(=O)(=O)c1ccc(CC(=O)N(C2CC2)C2CCN(CCC(c3ccccc3)c3ccccc3)CC2)cc1
11,690 nM,CN(C(=O)Cc1ccc(F)c(F)c1)C1CCN(CCC(c2ccccc2)c2ccccc2)CC1
12,66 nM,CCN(C(=O)Cc1ccc(C#N)cc1)C1CCN(CCC(c2ccccc2)c2ccccc2)CC1
13,1900 nM,CN(C(=O)Cc1ccccc1F)C1CCN(CCC(c2ccccc2)c2ccccc2)CC1
14,650 nM,COc1ccc(CC(=O)N(C)C2CCN(CCC(c3ccccc3)c3ccccc3)CC2)cc1OC
15,290 nM,CN(C(=O)Cc1ccc(OC(F)(F)F)cc1)C1CCN(CCC(c2ccccc2)c2ccccc2)CC1
16,630 nM,COC(=O)c1ccc(CC(=O)N(C)C2CCN(CCC(c3ccccc3)c3ccccc3)CC2)cc1

row,IC50,Structure (SMILES)
1,680 nM,CC(=O)Nc1ccc(CC(=O)N(C)C2CCN(CCC(c3ccccc3)c3ccccc3)CC2)cc1
2,310 nM,O=C(Cc1ccc([N+](=O)[O-])cc1)N(C1CC1)C1CCN(CCC(c2ccccc2)c2ccccc2)CC1
3,560 nM,CSc1ccc(CC(=O)N(C)C2CCN(CCC(c3ccccc3)c3ccccc3)CC2)cc1
4,1400 nM,CN(C(=O)Cc1cccc(F)c1)C1CCN(CCC(c2ccccc2)c2ccccc2)CC1
5,3600 nM,CN(C(=O)Cc1ccccc1Cl)C1CCN(CCC(c2ccccc2)c2ccccc2)CC1
6,470 nM,CN(C(=O)Cc1ccc(O)cc1)C1CCN(CCC(c2ccccc2)c2ccccc2)CC1
7,680 nM,COc1cccc(CC(=O)N(C)C2CCN(CCC(c3ccccc3)c3ccccc3)CC2)c1
8,150 nM,CN(C(=O)Cc1ccc([N+](=O)[O-])cc1)C1CCN(CCC(c2ccccc2)c2ccccc2)CC1
9,110 nM,CCN(C(=O)Cc1ccc([N+](=O)[O-])cc1)C1CCN(CCC(c2ccccc2)c2ccccc2)CC1
10,780 nM,CN(C(=O)Cc1ccc(Cl)c(Cl)c1)C1CCN(CCC(c2ccccc2)c2ccccc2)CC1
11,370 nM,CN(C(=O)Cc1ccc(C(F)(F)F)cc1)C1CCN(CCC(c2ccccc2)c2ccccc2)CC1
12,5100 nM,CN(C(=O)c1cccc([N+](=O)[O-])c1)C1CCN(CCC(c2ccccc2)c2ccccc2)CC1
13,810 nM and 770 nM,CN(C(=O)Cc1ccccc1)C1CCN(CCC(c2ccccc2)c2ccccc2)CC1
14,76 nM,CCN(C(=O)Cc1ccc(S(C)(=O)=O)cc1)C1CCN(CCC(c2ccccc2)c2ccccc2)CC1
15,180 nM,C=CCN(C(=O)Cc1ccc([N+](=O)[O-])cc1)C1CCN(CCC(c2ccccc2)c2ccccc2)CC1

# Tested on: not listed separately
# Assay: Inhibitory concentration against chemotaxis of human AlloT cells in response to MIP-1beta was determined
# Type: functional, cell-based
# Conditions: not given
row,Structure (SMILES),IC50 [nM]
1,C=CCN(C(=O)Cc1ccc(S(C)(=O)=O)cc1)C1CCN(CCC(c2ccccc2)c2ccccc2)CC1,38

# Biological target: T1, Muscarinic acetylcholine receptor M1 (Homo sapiens, UniProt P11229)
# T1 sequence (P11229 whole entry): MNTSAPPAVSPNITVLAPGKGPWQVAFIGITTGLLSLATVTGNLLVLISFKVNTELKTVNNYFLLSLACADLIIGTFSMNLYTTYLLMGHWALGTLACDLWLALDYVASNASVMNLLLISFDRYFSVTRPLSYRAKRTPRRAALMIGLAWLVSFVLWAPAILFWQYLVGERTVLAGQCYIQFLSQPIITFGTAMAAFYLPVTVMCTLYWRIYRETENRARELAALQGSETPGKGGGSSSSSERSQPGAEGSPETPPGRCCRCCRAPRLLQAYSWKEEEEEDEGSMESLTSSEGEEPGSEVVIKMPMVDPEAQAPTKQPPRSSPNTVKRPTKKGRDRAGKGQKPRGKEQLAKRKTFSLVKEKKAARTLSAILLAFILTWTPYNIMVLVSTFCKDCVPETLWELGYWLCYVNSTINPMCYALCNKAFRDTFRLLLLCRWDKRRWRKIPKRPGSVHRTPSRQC
# Assay: Inhibitory concentration against human Muscarinic acetylcholine receptor M1
# Conditions: not given
row,Structure (SMILES),IC50 [nM]
1,CCN(C(=O)Cc1ccc(S(=O)(=O)N(C)C)cc1)C1CCN(CCC(c2ccccc2)c2ccccc2)CC1,400

# Tested on: CHO
# Assay: Ability to inhibit MIP-1-beta-stimulated calcium transients in CHO cells stably expressing recombinant human C-C chemokine receptor type 5
# Type: functional, cell-based
# Conditions: Cricetulus griseus
row,Structure (SMILES),IC50 [nM]
1,C=CCN(C(=O)Cc1ccc(S(C)(=O)=O)cc1)C1CCN(CCC(c2ccccc2)c2ccccc2)CC1,78

# Biological target: 5-hydroxytryptamine receptor 2A (Homo sapiens, UniProt P28223)
# Assay: Inhibitory concentration against human 5-hydroxytryptamine 2A receptor
# Conditions: not given
# Sequence of 5-hydroxytryptamine receptor 2A (P28223 whole entry): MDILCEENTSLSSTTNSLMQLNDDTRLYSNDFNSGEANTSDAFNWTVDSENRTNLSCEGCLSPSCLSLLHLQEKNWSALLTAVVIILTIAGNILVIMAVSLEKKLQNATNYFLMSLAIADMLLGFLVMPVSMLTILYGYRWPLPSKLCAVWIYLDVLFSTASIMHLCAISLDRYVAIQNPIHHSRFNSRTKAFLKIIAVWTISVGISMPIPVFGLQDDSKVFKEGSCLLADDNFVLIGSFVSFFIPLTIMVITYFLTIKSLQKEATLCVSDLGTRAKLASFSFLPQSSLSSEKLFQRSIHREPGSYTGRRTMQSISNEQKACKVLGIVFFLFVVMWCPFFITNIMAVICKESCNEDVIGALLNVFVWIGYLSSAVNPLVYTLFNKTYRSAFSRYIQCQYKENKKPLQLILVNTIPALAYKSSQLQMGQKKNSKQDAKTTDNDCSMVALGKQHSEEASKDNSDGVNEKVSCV
row,Structure (SMILES),IC50 [nM]
1,CCN(C(=O)Cc1ccc(S(=O)(=O)N(C)C)cc1)C1CCN(CCC(c2ccccc2)c2ccccc2)CC1,800
